Here are results for 16 compounds from US10030027B2, “Soluble guanylate cyclase stimulators” (MERCK SHARP & DOHME CORP., priority 2015, dated 2018).

The target in one experiment is sGC α1/β1 heterodimer (Homo sapiens (Human), UniProt Q02108+Q02153). Put plainly: Cell-based sGC functional assay (cyclic GMP assay for sGC activator: CASA assay). Further details: % Activation: concentration or dose not given beside the values. Particulars: CHO-K1/sGC cells; for Emax: CHO-K1, activity expressed as percentage of compound A (standard), read-out: % Activation; for EC50: inflection point, 4P fit, read-out: IP. From the text:
Cell-Based sGC Functional Assay (Cyclic GMP Assay for sGC Activator: CASA Assay)
Soluble guanylate cyclase (sGC) is a heme-containing enzyme that converts GTP to secondary messenger cGMP. Increases in cGMP levels affect several physiological processes including vasorelaxation through multiple downstream pathways. […] Heme-dependent activators (HDAs) preferentially activate sGC containing a ferrous heme group. To determine the effect of sGC activators on enzyme activity, the CASA assay was developed to monitor the generation of cGMP in a cell line that stably expresses the heterodimeric sGC protein.
A CHO-K1 cell line stably expressing the sGC α1/β1 heterodimer was generated using a standard transfection protocol. CHO-K1 cells were transfected with plasmids pIREShyghsGCα1 and pIRESneo-hsGCβ1 simultaneously using FUGENE reagent. Clones that stably express both subunits were selected with hygromycin and neomycin for ˜2 weeks. Clone #7 was chosen for the assay and was designated CHO-K1/sGC. CHO-K1/sGC cells were maintained in F-K12 medium containing 10% heat-inactivated Fetal Bovine Serum (FBS), 100 μg/mL penicillin/streptomycin, 0.5 mg/mL hygromycin and 0.25 mg/mL G418. The cells were then cryopreserved in LN2. On the day of the assay, the cells were thawed and resuspended in EBSS Assay Buffer (Sigma, E3024) supplemented with 5 mM MgCl2, 10 mM HEPES (4-(2-hydroxyethyl)piperazine-1-ethanesulfonic acid) and 0.05% BSA (bovine serum albumin) (EAB) and cell density was then adjusted to 2.25×10^5/mL with EAB. IBMX (3-isobutyl-1-methylxanthin, 0.5 mM) was added to inhibit degradation of cGMP. Compounds were diluted from DMSO stock solutions and added to the assay at a final DMSO concentration of 2.5%. Cells were pre-incubated in the presence and absence of 1 μM of Diethylenetriamine/nitric oxide adduct (DETA-NO; Sigma, 17018) for 30 min at 25° C. Compounds are subsequently added and incubated for 1 hr at 37° C. At the end of the incubation period, the reaction was terminated and the cells were lysed with the detection reagents from Cisbio Kits. The level of intracellular cGMP was determined using an HTRF-based assay kit (CisBio, 62GM2PEC), which detects the displacement of a fluorescence labeled cGMP from its specific antibody. The cGMP produced by test compounds was directly compared to the maximum cGMP production (this value was set to equal 100% activation.) of the published sGC-HDA compound A:
(Example 1 in WO 2010/065275, published Jun. 10, 2010). The test compounds' activity were then expressed as a percentage of compound A, the standard in every experiment. This percent activation was calculated either in the presence or absence of DETA-NO which was then plotted. Inflection points (IP) and maximum fold induction was derived using Abase analysis software for 4P fit.

The target in experiment [1] is human recombinant sGC enzyme (Homo sapiens (Human), UniProt Q02108+Q02153). Put plainly: Size Exclusion Chromatography (SEC) competition binding assay using [3H] Ex-77B as the radioligand. The note with it: [3H] Ex-77B radioligand, 24 hours at 37° C. The method, then: Binding Assay: The binding potencies of sGC compounds to the human recombinant sGC enzyme were determined in a Size Exclusion Chromatography (SEC) competition binding assay using [^3H] Ex-77B as the radioligand. [^3H] Ex-77B was prepared using a standardardized tritium exchange procedure. The parent (non-labeled) molecule was first iodinated then a Pd-catalyzed iodine to tritium exchange provided the labeled compound. […] Assays were conducted in 96-well plates in a total volume of 200 μL. […] Non-specific binding was defined by competition with 1 μM of Ex-77B. After the incubation period, the binding mixtures were loaded onto the gel-filtration plate (ThermoFischer Cat. No. 89808) pre-equilibrated with binding buffer and spun at 1000×g for 3 min at 4° C. on a Bench top centrifuge. The collected eluates in White Frame Clear Well Isoplates (Perkin Elmer Cat #6005040) received 100 μl of UltimaGold scintillation cocktail. The sealed plates were shaken vigorously and span, and counted after 6 hours with a Wallac Microbeta TriLux 1450 LSC & Luminescence Counter (Perkin Elmer). Data from competition experiments were analyzed to determine Ki values using one site fit Ki equation.

As for `CC1(c2nc(-c3ccc(C(=O)O)cc3)cs2)C(=O)Nc2nc(-c3nn(Cc4ccccc4F)c4cc(Cl)ccc34)nc(N)c21` (stereo not drawn) [Example 165A, 4-(2-{4-amino-2-[6-chloro-1-(2-fluorobenzyl)-1H-indazol-3-yl]-5-methyl-6-oxo-6,7-dihydro-5H-pyrrolo[2,3-d]pyrimidin-5-yl}-1,3-thiazol-4-yl) benzoic acid], on sGC α1/β1 heterodimer, the Emax turned out to be 110% and the EC50 was 48 nM. In experiment [1], the Ki is 0.081 nM.
The corresponding values for `C[C@@]1(c2ccc(CCC(=O)O)cc2)C(=O)Nc2nc(-c3nn(CC4CCCCO4)c4cc(Cl)ccc34)nc(N)c21` (single isomer, unassigned) [Example 6A] are 85%, 1260 nM and 0.13 nM.
The corresponding values for `CC(C)(Cc1csc(C2(C)C(=O)Nc3nc(-c4nn(CCC(F)(F)F)c5ncc(F)cc45)nc(N)c32)n1)C(=O)O` (stereo not drawn) [Example 85A, 3-(2-{4-amino-2-[5-fluoro-1-(3,3,3-trifluoropropyl)-1H-pyrazolo[3,4-b]pyridin-3-yl]-5-methyl-6-oxo-6,7-dihydro-5H-pyrrolo[2,3-d]pyrimidin-5-yl}-1,3-thiazol-4-yl)-2,2-dimethylpropanoic acid] are 130%, 700 nM and 1.5 nM.
With `CC(C)(Cc1csc([C@]2(C)C(=O)Nc3nc(-c4nn(Cc5ccccc5F)c5cc(F)ccc45)nc(N)c32)n1)C(=O)O` [Example 62A, (S)-3-(2-{4-amino-2-[6-fluoro-1-(2-fluorobenzyl)-1H-indazol-3-yl]-5-methyl-6-oxo-6,7-dihydro-5H-pyrrolo[2,3-d]pyrimidin-5-yl}-1,3-thiazol-4-yl)-2,2-dimethylpropanoic acid], on sGC α1/β1 heterodimer, the Emax worked out at 148% and the EC50 worked out at 141 nM. Moreover, the Ki in experiment [1] stood at 0.022 nM.
Consider `Cc1ccccc1Cn1nc(-c2nc(N)c3c(n2)NC(=O)[C@@]3(C)c2ccc(CCC(=O)O)cc2)c2ccc(Cl)cc21` [Example 68B, (S)-3-(4-{4-amino-2-[6-chloro-1-(2-methylbenzyl)-1H-indazol-3-yl]-5-methyl-6-oxo-6,7-dihydro-5H-pyrrolo[2,3-d]pyrimidin-5-yl}phenyl)propanoic acid], for which, at sGC α1/β1 heterodimer, the Emax turned out to be 109% and the EC50 was 568 nM. Besides, the Ki in experiment [1] came to 3.1 nM.
In the same order, the values of `CC(C)(Cc1csc([C@]2(C)C(=O)Nc3nc(-c4nn(Cc5ccccc5F)c5ccccc45)nc(N)c32)n1)c1nn[nH]n1` (single isomer, unassigned) [Example 236A] are 110%, 478 nM and 0.158 nM.
In the same order, the values of `CC(C)(Cc1coc(C2(C)C(=O)Nc3nc(-c4nn(CC5CCCC5)c5cc(Cl)ccc45)nc(N)c32)n1)C(=O)O` (stereo not drawn) [Example 161A, 3-(2-{4-amino-2-[6-chloro-1-(cyclopentylmethyl)-1H-indazol-3-yl]-5-methyl-6-oxo-6,7-dihydro-5H-pyrrolo[2,3-d]pyrimidin-5-yl}-1,3-oxazol-4-yl)-2,2-dimethyl-propanoic acid] are 121%, 291 nM and 0.081 nM.
In the same order, the values of `CC(C)(Cc1csc([C@]2(C)C(=O)Nc3nc(-c4nn(CC5CCCCO5)c5cc(F)ccc45)nc(N)c32)n1)C(=O)O` (single isomer, unassigned) [Example 133AA] are 104%, 657 nM and 0.513 nM.
As to `CC1(c2ccc(C(=O)O)cn2)C(=O)Nc2nc(-c3nn(Cc4ccccc4F)c4cc(Cl)ccc34)nc(N)c21` (stereo not drawn) [Example 254A, 6-{4-Amino-2-[6-chloro-1-(2-fluorobenzyl)-1H-indazol-3-yl]-5-methyl-6-oxo-6,7-dihydro-5H-pyrrolo[2,3-d]pyrimidin-5-yl}pyridine-3-carboxylic acid], at sGC α1/β1 heterodimer, the Emax stood at 123% and the EC50 was found to be 1010 nM. In addition, in experiment [1], the Ki turned out to be 0.199 nM.
The corresponding values for `CC(C)(Cc1coc(C2(C)C(=O)Nc3nc(-c4nn(CC5CCCCC5)c5ccccc45)nc(N)c32)n1)C(=O)O` (stereo not drawn) [Example 228A, 3-(2-{4-amino-2-[1-(cyclohexyl-methyl)-1H-indazol-3-yl]-5-methyl-6-oxo-6,7-dihydro-5H-pyrrolo[2,3-d]pyrimidin-5-yl}-1,3-oxazol-4-yl)-2,2-dimethyl-propanoic acid] are 95%, 64 nM and 0.079 nM.
The corresponding values for `Cc1ccnc(Cn2nc(-c3nc(N)c4c(n3)NC(=O)C4(C)c3nc(CC(C)(C)C(=O)O)co3)c3ccc(Cl)cc32)c1F` (stereo not drawn) [Example 215A, 3-(2-{4-amino-2-[6-chloro-1-((3-fluoro-4-methyl-pyridin-2-yl)methyl)-1H-indazol-3-yl]-5-methyl-6-oxo-6,7-dihydro-5H-pyrrolo[2,3-d]pyrimidin-5-yl} 1,3-oxazol-4-yl)-2,2-dimethyl-propanoic acid] are 119%, 3700 nM and 0.189 nM.
With `CC(C)(Cc1csc([C@]2(C)C(=O)Nc3nc(-c4nn(CC5CCCCO5)c5ccccc45)nc(N)c32)n1)C(=O)O` (single isomer, unassigned) [Example 229AA], the “% Activation” value on sGC α1/β1 heterodimer (activity expressed as percentage of compound A (standard)) is on record as 114.6%. Further, the EC50 at sGC α1/β1 heterodimer worked out at 770 nM. Besides, in experiment [1], the Ki was 0.496 nM.
For the compound `CC1(c2cccc(C(=O)O)c2)C(=O)Nc2nc(-c3nn(CCC(F)(F)C(F)(F)F)c4cc(Cl)ccc34)nc(N)c21` (stereo not drawn) [Example 26B, 3-{4-amino-2-[6-chloro-1-(3,3,4,4,4-pentafluorobutyl)-1H-indazol-3-yl]-5-methyl-6-oxo-6,7-dihydro-5H-pyrrolo[2,3-d]pyrimidin-5-yl}benzoic acid], at sGC α1/β1 heterodimer, the Emax came out at 102% and the EC50 stood at 1920 nM. In addition, the Ki in experiment [1] came to 0.266 nM.
The corresponding values for `C[C@@]1(c2ccc(CCC(=O)O)cc2)C(=O)Nc2nc(-c3nn(Cc4ccccc4F)c4cc(F)ccc34)nc(N)c21` [Example 60B, (S)-3-(4-{4-amino-2-[6-fluoro-1-(2-fluorobenzyl)-1H-indazol-3-yl]-5-methyl-6-oxo-6,7-dihydro-5H-pyrrolo[2,3-d]pyrimidin-5-yl}phenyl)propanoic acid] are 128%, 167 nM and 0.102 nM.
As for `CC1(c2ccc(C(=O)O)cc2)C(=O)Nc2nc(-c3nn(Cc4ccccc4F)c4cc(Cl)ccc34)nc(N)c21` (stereo not drawn) [Example 209B, 4-{4-amino-2-[6-chloro-1-(2-fluorobenzyl)-1H-indazol-3-yl]-5-methyl-6-oxo-6,7-dihydro-5H-pyrrolo[2,3-d]pyrimidin-5-yl} benzoic acid], on sGC α1/β1 heterodimer, the Emax came out at 94.4% and the EC50 is 2480 nM. In experiment [1], the inhibitory constant (Ki) stood at 1.64 nM.
In the same order, the values of `CC(C)(Cc1ccc(C2(C)C(=O)Nc3nc(-c4nn(CCCC(F)(F)F)c5cc(Cl)ccc45)nc(N)c32)cc1)C(=O)O` (stereo not drawn) [Example 42B, 3-(4-{4-amino-2-[6-chloro-1-(4,4,4-trifluorobutyl)-1H-indazol-3-yl]-5-methyl-6-oxo-6,7-dihydro-5H-pyrrolo[2,3-d]pyrimidin-5-yl}phenyl)-2,2-dimethylpropanoic acid] are 84%, 1050 nM and 0.951 nM.
